Measured values reported in patent US20210380547A1, “UREA DERIVATIVES FOR TREATING AND/OR PREVENTING CANCER” (CENTRE NATIONAL DE LA RECHERCHE SCIENTIFIQUE, priority 2018, published 2021).

Experiments:
DAOY and HD-MB03 cells = experiment: Clonogenicity, medulloblastoma cells; assay type: cell-based; conditions: 1 μM, Day+7 (DAOY), Day+11 (HD-MB03)
Procedure: FIG. 8: Inhibition of proliferation of medulloblastoma cells by compound #1. Clonogenicity tests; […].
150 DAOY cells and 300 HD-MB03 cells were seeded in a 6-well plate with or without treatment (1 μM of compound #1 or DMSO as control “CONT”). At Day+7 (DAOY) and Day+11 (HD-MB03), cells were mixed with absolute ethanol for 20 minutes, washed with PBS and colored with Giemsa 50% for 30 minutes. After washing, the boxes were scanned and the number of clones was quantified using ImageJ® software. Each assay was performed in duplicate.

786-O and 786-R cells = experiment: Clonogenicity (colony formation) assay, RCC cells; assay type: cell-based, human; conditions: 1 μM, 10 days
Procedure: G: Clonogenicity assays: RCC cells ([…] and 786-R) were treated with compound #1 or sunitinib (1 μM) and colored with Giemsa blue after 10 days (representative results of an experiment repeated trice);
Cells (5000 cells per condition) were treated or not with compound #1 and sunitinib, and cisplatin. Colonies were detected after 10 days of culture. Cells were then washed, fixed at room temperature for 20 min with 3% paraformaldehyde (PFA; Electron Microscopy Sciences) and colored by GIEMSA (Sigma)

[1] = tested on: VEGFA-dependent HuVEC migration; experiment: Boyden chamber migration assay, VEGFA-dependent; assay type: cell-based; conditions: VEGFA (50 ng/ml), same concentration
Procedure: CXCL7 or VEGFA-stimulated chemotaxis assays were monitored using modified Boyden chambers containing polycarbonate membranes (8-μm pores, Transwell; Corning, Sigma). Cells were seeded on the upper side of the filters and chambers were placed on 24-well plates containing CXCL7 (50 ng/ml) or VEGFA (50 ng/ml). Cells were allowed to migrate for 24 hr at 37° C. in 5% CO2. Migratory cells on the lower membrane surface were fixed in 3% paraformaldehyde, stained with 0.1% crystal violet.

SKM1 = experiment: XTT cell viability assay, SKM1; assay type: cell-based, human; conditions: Homo sapiens, SKM-1; XTT assay (48 h); standard deviation of 10%; read-out: EC50 (μM) MDS SKM1
Procedure: (§1) Fifty microliters of sodium 3′-[1-phenylaminocarbonyl)-3,4-tetrazolium]-bis(4-methoxy-6-nitro) benzene sulfonic acid hydrate (XTT) reagent was added to each well. The assay is based on the cleavage of the yellow tetrazolium salt XTT to form an orange formazan dye by metabolically active cells. The absorbance of the formazan product, reflecting cell viability, was measured at 490 nm. Each assay was performed in quadruplicate.
(§2) Compounds #1-#14 have been assayed as potential anti-proliferative agents against a panel of human breast head and neck, and kidney tumor cells and hematological malignancies, selected on the basis of their aggressiveness (e.g. incurable triple-negative breast cancer cells: MDA-MB-231; kidney ccRCC cells: RCC4, A498 and 786-O and 786R; head and neck cancer cells: CAL33, CAL33RR, CAL27, and CAL27RR; acute myeloid cell lines: OCI-AML2, OCI-AML3, MolM13, and MolM14; myelodysplastic cell line: SM1; and chronic myeloid cell line: CML). All these cell lines share as common denominator the expression of CXCR1 and CXCR2. The EC50 values have been measured by a XTT colorimetric assay, and compared to those of SB-225002, used as a reference; the results are listed in Table 1.

caspase-3 activity = experiment: Caspase-3 activity assay; assay type: cell-based, human; conditions: 2.5 μM, 48 hr, 786-O and 786-R
Procedure: F: Cells were treated with 2.5 and 5 μM compound #1, with 2.5 μM sunitinib for 48 hr. Cells were lysed in caspase buffer and caspase-3 activity was evaluated using 0.2 mM Ac-DEVD-AMC as substrates. Results expressed as arbitrary units (A.U.) and are means±Standard deviation of 3 independent experiments;
Caspase 3 activity was assessed in quadruplicates using z-DEVD-AMC as substrate and fluorescence were assessed.

MDA-MB-231 = experiment: XTT cell viability assay, MDA-MB-231; assay type: cell-based; conditions: Homo sapiens, XTT assay (48 h), standard deviation of 10%, read-out: EC50 (μM) Breast MDA-MB-231
Procedure: as §1, §2

[2] = tested on: primary RCC cells (TF and CC); experiment: XTT cell viability and colony assay, primary RCC cells; assay type: cell-based; conditions: Homo sapiens, XTT 48 h, read-out: EC50 proliferation of primary kidney tumor cells
Procedure: A: Primary RCC cells (TF and CC) and normal renal cells (15S) were treated with compound #1 (1 to 5 μM) for 48 h. Cell viability was measured by XTT assays;
B: Primary RCC cells (TF and CC) were treated with compound #1 (1 or 2.5 μM) and colored with Giemsa blue after 10 days (representative results of an experiment repeated trice);
as §1
The biological effects of compound #1 on primary RCC tumors cells and normal renal cells harvested from patients suffering from kidney cancer have been explored (FIG. 4).

RCC4 = experiment: XTT cell viability assay, RCC4; assay type: cell-based; conditions: Homo sapiens, XTT assay (48 h), standard deviation of 10%, read-out: EC50 (μM) Kidney RCC4
Procedure: as §1, §2

CAL27RR = experiment: XTT cell viability assay, CAL27RR (cisplatin-resistant); assay type: cell-based, human
Procedure: A, B: Naive (Cal27, A), and cisplatine-resistant (Cal27R, B) Cal27 cells, were treated with compound #1 or cisplatine (1 to 10 μM) for 48 hr. Cell viability was measured by XTT assays;
C, D: Cal27 (C), cal27R (D), were treated with 2.5 μM compound #1, 2.5 μM cisplatin for 24 h to 96 h. The metabolism of cells was measured by XTT assay.
as §1, §2

O=C(Nc1cccc(Cl)c1)Nc1nc2ccc([N+](=O)[O-])cc2s1 [Compound #1, 1-(3-chlorophenyl)-3-(6-nitrobenzo[d]thiazol-2-yl)urea]
formation of DAOY and HD-MB03 clones (DAOY and HD-MB03 cells): significatively reduces the formation
clonogenicity (786-O and 786-R cells): exerts a cytostatic effect
activity on VEGFA-stimulated HuVEC motility [1]: does not exert any visible activity
EC50 (SKM1): 5 µM
caspase-3 activity (caspase-3 activity): significantly strengthened
EC50 (MDA-MB-231): 2.5 µM
EC50 [2]: ~2 µM
EC50 (RCC4): 5 µM
time of treatment to total inhibition of proliferation (CAL27RR; Cal27R cells, 2.5 μM, XTT 24 h to 96 h): approximately 70 hours
EC50 (CAL27RR; Homo sapiens, light or radiation study, XTT assay (48 h), resistant to irradiation and cisplatin, standard deviation of 10%, read-out: EC50 (μM) Head and Neck CAL27RR): 2 µM
